Test results published in patent US8889140B2, “Compositions and methods for tissue repair” (TransTarget, Inc., priority 2007, dated 2014).
“Also recorded” adds a separate entry of the source. Where no end group is shown, it is not given here.

Key:
Format in all cases: cell-based, human
[1] = test system: HUVEC cells; test: Cell attachment assay (MTS) on coated wells; details: substrate coated at 20, 50, 100 μg/ml (fibronectin 10 and 100 μg/ml), 30 minute incubation, vs BSA 2 mg/ml
Procedure: Immulon 1B, untreated 96-well plates (CoStar), and untreated 35 mm dishes (CoStar) were purchased from Fisher Scientific (Pittsburg, Pa.). Human umbilical vein endothelial cells (HUVECs), cell culture media and supplements were purchased from Lonza (Basel, Switzerland). EMD peptides as shown in SEQ ID Nos: 1-4, were synthesized by Commonwealth Biotechnologies Inc., (Richmond, Va.). Amino acid analysis was performed on the peptides to verify the amino acid sequence.
For the adhesion studies 96-well Immulon 1B plates were used. Various concentrations of the EMD peptides (SEQ ID Nos: 1-4) were tested for their ability to bind cells, and compared to the full-length protein, from which the EMD peptides were derived as positive controls. Bovine Serum Albumin (BSA) treated wells were used as a negative control. Full-length collagen IV, and the EMD peptides Hep I, Hep III, FCHV, and RGD were tested at concentrations of 20 μg/ml, 50 μg/ml, and 100 μg/ml. Full length fibronectin was tested at concentrations of 10 μg/ml and 100 μg/ml. Negative control wells were coated with BSA at a concentration of 2 mg/ml. Fifty μL of protein or EMD peptide solutions at the various concentrations was added separate wells and incubated at 37° C. for at least 18 hours. The protein or peptide solution was then removed and the wells were blocked for 2 hours at 37° C. with 2 mg/mL BSA solution. Following the blocking procedure, wells were washed twice with PBS. HUVEC cells (Lonza, Basel Switzerland) were then added to the wells at a concentration of 5×10^3 to 1×10^4 cells per well. Following a thirty-minute incubation, […] wells were washed and cell adhesion was determined using an MTS (3-(4,5-dimethylthiazol-2-yl)-5-(3-carboxymethoxyphenyl)-2-(4-sulfophenyl)-2H-tetrazolium, inner salt) tetrazolium/formazan assay (Promega, Madison, Wis.) according to the manufacturer's instructions.

[2] = test system: HUVEC cells; test: Haptotactic cell migration assay, modified Boyden chamber; details: 6 hours; for haptotactic migration compared to untreated membranes: membrane coated at 500 ng/ml to 300 μg/ml, normalized to uncoated control
Procedure: In order to test the ability of EMD peptides to recruit cells haptotactic migration assays with Hep I (SEQ ID NO:1), Hep ITT (SEQ TD NO:2), FC/HV (SEQ ID NO:3), RGD (SEQ ID NO:4), FN, and Col IV were conducted using a modified Boyden chamber. Haptotactic migration was performed in triplicate and was assessed using a modified Boyden chamber (Corning, CoStar, Acton, Mass.). The assay was carried out as follows: the lower chamber was first blocked with 10% BSA for at least 30 minutes at 37° C. followed by 3 washings with PBS. The lower surface of the membrane on the upper chamber was coated with approximately 10 μL of protein or EMD peptide solution having a concentration between 500 ng/mL-300 μg/mL and allowed to incubate for 15-30 minutes at 37° C. and then allowed to air dry at room temperature under aseptic conditions. At least one assay was performed for each concentration. Basal cell media supplemented with 0.5% BSA was then added to the lower chamber and 100 μL of H U V ECs (1×10^4 to 2×10^4 cells) in the same cell media was added to the upper chamber. The chambers were then incubated at 37° C., 5.0% CO2 for 6 hours. Upon completion of the incubation period, the cells on the membrane of the upper chamber were fixed with 4% paraformaldehyde followed by removal of the cells on the upper side of the membrane with a Q-tip. Next, the membrane was carefully removed from the chamber, dipped in a 1:4000 dilution of Hoechst 33342 (Invitrogen, Carlsbad, Calif.) and placed on a glass slide. Using a fluorescent microscope (Nikon Eclipse E800) at 10× magnification, five random fields of view were photographed on each membrane for determination of the area cell density.
In order to allow for direct comparison, the area cell density of migrated cells was normalized to the area cell density of migrated cells on the uncoated (0 μg/mL) control membrane. See, FIG. 3.

[3] = test system: HUVEC cells; test: Cell proliferation assay (MTS) on coated wells; details: substrate coated at 20, 50, 100 μg/ml (fibronectin 10 and 100 μg/ml), 1-4 days, vs BSA 2 mg/ml, p<0.05
Procedure: To determine if EMD peptides can activate cells by stimulating cellular proliferation, 96-well plates coated using the same protocol as described above for the cell attachment assay was used. Following treatment of the wells, HUVEC cells (Lonza, Basel Switzerland) were then added to the wells at a concentration of 5×10^3 to 1×10^4 cells per well and incubated under standard culture conditions for 1, 2, 3 or 4 days. Cell proliferation was then determined at the end of the incubation period using an MTS tetrazolium/formazan assay (Promega, Madison, Wis.) according to the manufacturer's instructions.

For GRGDSPASSPISC-OH, the “cell attachment compared to BSA control” value ([1]; p<0.05) was “increased cell attachment; also recorded: significantly better at promoting cell attachment”, the “haptotactic migration compared to untreated membranes” value ([2]; p<0.05) was “significant migration compared to control; also recorded: promoted haptotactic migration” and the “cell proliferation (cell activation) compared to BSA control” value [3] was “increased cellular proliferation; also recorded: significantly better at stimulating cellular proliferation”.
With WQPPRARI-OH [FCHV] the “cell attachment compared to BSA control” value ([1]; p<0.05) was “not statistically different from that of the BSA treated wells; also recorded: not significantly different from that of the BSA control”, the “haptotactic migration compared to untreated membranes” value ([2]; p<0.05) was “did not promote haptotactic migration” and the “haptotactic migration compared to untreated membranes” value ([2]; p<0.05, listed as FC/HV) was “did not show statistically significant migration at any of the concentrations tested”. The “cell proliferation (cell activation) compared to BSA control” value [3] was “not different from that of cells cultured in wells coated with BSA; also recorded: not statistically different as compared to the BSA control”.
With TAGSCLRKFSTMY-OH [Hep I] the “cell attachment compared to BSA control” value ([1]; p<0.05) was “not statistically different from that of the BSA treated wells; also recorded: not significantly different from that of the BSA control”, the “concentrations showing statistically significant migration” value ([2]; coated membrane, vs uncoated control membrane) was “greater than 1 μg/ml” and the “haptotactic migration compared to untreated membranes” value ([2]; p<0.05) was “promoted haptotactic migration”. For the same substance, the “cell proliferation (cell activation) compared to BSA control” value [3] was “increased cellular proliferation; also recorded: significantly better at promoting cell proliferation”.
In the case of GEFYFDLRLKGDKY-OH [Hep III], the “cell attachment compared to BSA control” value ([1]; p<0.05) is reported as “increased cell attachment; also recorded: significantly better at promoting cell attachment”, the “haptotactic migration compared to untreated membranes” value ([2]; p<0.05) is reported as “significant migration compared to control; also recorded: promoted haptotactic migration” and the “cell proliferation (cell activation) compared to BSA control” value [3] is reported as “increased cellular proliferation; also recorded: significantly better at promoting cell proliferation”.
“fibronectin: Full length fibronectin, positive control [reference compound]” was tested, and the “cell attachment compared to BSA control” value ([1]; p<0.05) was “significantly better at promoting cell attachment”, the “cell attachment compared to BSA control” value ([1]; p<0.05, listed as Fibronectin) was “increased cell attachment” and the “haptotactic migration compared to untreated membranes” value ([2]; p<0.05) was “promoted haptotactic migration”. The “cell proliferation (cell activation) compared to BSA control” value [3] was “increased cellular proliferation; also recorded: significantly better at stimulating cellular proliferation”.
